The values below come from patent US8802664B2 (Bioproject, priority 2010, dated 2014).

The structures appear in SMILES notation.

The target in the assay is T1, human H4 receptor (Homo sapiens, UniProt Q9H3N8).
T1 construct: expressed in transfected cells
Description: [3H]Histamine binding on membranes of CHO cells stably expressing human H4 receptor. An outline of the steps:
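First, thawed CHO membranes carrying human H4 were diluted to 20 μg protein per well in pH 7.4 Tris/EDTA buffer. Next, incubation was ended by rapid filtration through PEI-treated GF/B filters followed by cold rinses. Finally, retained radioactivity was counted; 10 μM JNJ 7777120 marked nonspecific binding.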

T1 sequence (Q9H3N8 whole entry): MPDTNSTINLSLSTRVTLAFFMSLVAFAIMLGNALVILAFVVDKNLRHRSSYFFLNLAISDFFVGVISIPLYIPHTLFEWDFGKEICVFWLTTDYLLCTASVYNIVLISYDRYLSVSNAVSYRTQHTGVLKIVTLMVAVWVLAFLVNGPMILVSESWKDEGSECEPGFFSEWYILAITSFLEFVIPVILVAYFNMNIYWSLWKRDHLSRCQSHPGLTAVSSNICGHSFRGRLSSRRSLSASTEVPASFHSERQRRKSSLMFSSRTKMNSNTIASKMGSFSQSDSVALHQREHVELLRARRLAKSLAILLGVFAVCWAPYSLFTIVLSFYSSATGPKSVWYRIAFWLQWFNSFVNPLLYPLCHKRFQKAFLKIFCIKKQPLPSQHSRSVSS

On to `CN1CCC(OC(c2nc3ccccc3[nH]2)c2cc(C#CCCCCN=C(c3ccccc3)c3ccccc3O)ccc2F)CC1` (stereo not shown) [Example 562, 2-[(6-{3-[(1H-benzimidazol-2-yl)(1-methylpiperidin-4-yloxy)methyl]-4-fluorophenyl]hex-5-ynylimino)phenylmethyl}phenol], for which the Ki or IC50 activity class was below 30 nM.

For the compound `CN1CCC(OC(c2cccc(SCC(O)CO)c2)c2nc3ccccc3[nH]2)CC1` (stereo not shown) [Example 288, 3-{3-[(1H-benzimidazol-2-yl)(1-methylpiperidin-4-yloxy)methyl]phenylsulfanyl}propane-1,2-diol], the Ki or IC50 activity class was below 1000 nM.

`CN1CCC(OC(c2nc3ccccc3[nH]2)c2c(F)cccc2F)CC1` (stereo not shown) [Example 512]: the Ki or IC50 activity class was below 30 nM.

`CCCCCCc1cccc(C(NC2CCN(C)CC2)c2nc3ccccc3[nH]2)c1` (stereo not shown) [Example 76, [(1H-benzimidazol-2-yl)(3-hexylphenyl)methyl](1-methylpiperidin-4-yl)amine] gave a Ki or IC50 activity class below 300 nM.

Regarding `c1csc(C(OC2CCNCC2)c2nc3ccccc3[nH]2)c1` (stereo not shown) [Example 544], the Ki or IC50 activity class was below 1000 nM.

Compound `CN1CCC(OC(c2cccc(OCCCCN)c2)c2nc3ccccc3[nH]2)CC1` (stereo not shown) [Example 331, 4-{3-[(1H-benzimidazol-2-yl)(1-methylpiperidin-4-yloxy)methyl]phenoxy}butylamine] displayed a Ki or IC50 activity class below 300 nM.

`CN1CCC(OC(c2cccc(SCC3=NCCN3)c2)c2nc3cc(F)ccc3[nH]2)CC1` (stereo not shown) [Example 463] returned a Ki or IC50 activity class below 1000 nM.

With `Cc1cc(F)c(C(OC2CCN(C)CC2)c2nc3ccccc3[nH]2)c(F)c1` (single isomer, unassigned) [Example 559, 2-[(2,6-difluoro-4-methylphenyl)(1-methylpiperidin-4-yloxy)methyl]-1H-benzimidazole], the Ki or IC50 activity class was below 30 nM.

For the compound `CN1CCC(OC(c2cccc(N3CCC(N)CC3)c2)c2nc3ccccc3s2)CC1` (stereo not shown) [Example 405, 1-{3-[benzothiazol-2-yl(1-methylpiperidin-4-yloxy)methyl]phenyl}piperidin-4-ylamine], the Ki or IC50 activity class is below 300 nM.

Compound `C=CCOc1cccc(C(NC2CCN(C)CC2)c2nc3ccccc3[nH]2)c1` (stereo not shown) [Example 112, [(3-allyloxyphenyl)(1H-benzimidazol-2-yl)methyl](1-methylpiperidin-4-yl)amine] returned a Ki or IC50 activity class below 1000 nM.

On to `CN1CCC(OC(c2cccc(C#CCN3C(=O)c4ccccc4C3=O)c2)c2nc3ccccc3[nH]2)CC1` (stereo not shown) [Example 189, 2-(3-{3-[(1H-benzimidazol-2-yl)(1-methylpiperidin-4-yloxy)methyl]phenyl}prop-2-ynyl)isoindole-1,3-dione], for which the Ki or IC50 activity class was below 300 nM.

Regarding `CN1CCC(OC(c2cccc(CCCCCN)c2)c2nc3ccccc3s2)CC1` (stereo not shown) [Example 289, 5-{3-[benzothiazol-2-yl(1-methylpiperidin-4-yloxy)methyl]phenyl}pentylamine], the Ki or IC50 activity class was below 30 nM.

Turning to `CN1CCC(OC(c2cccc(CCCCNC(=N)N)c2)c2nc3ccccc3s2)CC1` (stereo not shown) [Example 374, N-(4-{3-[benzothiazol-2-yl(1-methylpiperidin-4-yloxy)methyl]phenyl}butyl)guanidine], the Ki or IC50 activity class was below 30 nM.

Turning to `CN1CCC(OC(c2cccc(SCc3ccccc3)c2)c2nc3ccccc3[nH]2)CC1` (stereo not shown) [Example 150, 2-[(3-benzylsulfanylphenyl)(1-methylpiperidin-4-yloxy)methyl]-1H-benzimidazole], the Ki or IC50 activity class is below 300 nM.

In the case of `CN1CCC(OC(c2cccc(OCCN3CCNCC3)c2)c2nc3ccccc3s2)CC1` (stereo not shown) [Example 330, 2-{(1-methylpiperidin-4-yloxy)[3-(2-piperazin-1-yl-ethoxy)phenyl]methyl}benzothiazole], the Ki or IC50 activity class was below 300 nM.

`CN1CCC(OC(c2cccc(OC3CCNC3)c2)c2nc3ccccc3s2)CC1` (stereo not shown) [Example 383, 2-{(1-methylpiperidin-4-yloxy)[3-(pyrrolidin-3-yloxy)phenyl]methyl}benzothiazole]: the Ki or IC50 activity class was below 300 nM.

Compound `CN1CCC(OC(c2nc3ccccc3[nH]2)c2cc(OC(F)(F)F)ccc2Cl)CC1` (stereo not shown) [Example 524] displayed a Ki or IC50 activity class below 300 nM.

For `CN1CCC(OC(c2cccc(OCc3ccccn3)c2)c2nc3ccccc3s2)CC1` (stereo not shown) [Example 283, 2-{(1-methylpiperidin-4-yloxy)[3-(pyridin-2-ylmethoxy)phenyl]methyl}benzothiazole], the Ki or IC50 activity class is below 30 nM.

Compound `CN1CCC(OC(c2cccc(CCCCCNC(=N)N)c2)c2nc3ccccc3s2)CC1` (stereo not shown) [Example 365, N-(5-{3-[benzothiazol-2-yl(1-methylpiperidin-4-yloxy)methyl]phenyl}pentyl)guanidine] yielded a Ki or IC50 activity class below 300 nM.

`CN1CCC(OC(c2cccc(OCCCCCNCCCCN)c2)c2nc3ccccc3[nH]2)CC1` (stereo not shown) [Example 419, N1-(5-{3-[(1H-benzimidazol-2-yl)(1-methylpiperidin-4-yloxy)methyl]phenoxy}pentyl)butane-1,4-diamine]: the Ki or IC50 activity class is below 1000 nM.

For the compound `CN1CCC(OC(c2cccc(SCCNC3=NCCN3)c2)c2nc3ccccc3[nH]2)CC1` (stereo not shown) [Example 317, (2-{3-[(1H-benzimidazol-2-yl)(1-methylpiperidin-4-yloxy)methyl]-phenylsulfanyl}ethyl)(4,5-dihydro-1H-imidazol-2-yl)amine], the Ki or IC50 activity class was below 1000 nM.

Take `CN1CCC(OC(c2cccc(SCCCCN)c2)c2nc3ccccc3s2)CC1` (stereo not shown) [Example 359, 4-{3-[benzothiazol-2-yl(1-methylpiperidin-4-yloxy)methyl]phenylsulfanyl}butylamine]: the Ki or IC50 activity class is below 30 nM.

With `CN1CC(COC(c2cccc(SCCCCN)c2)c2nc3ccccc3[nH]2)C1` (stereo not shown) [Example 507, 4-{3-[(1H-benzimidazol-2-yl)(1-methylazetidin-3-ylmethoxy)methyl]phenylsulfanyl}butylamine], the Ki or IC50 activity class is below 30 nM.

Regarding `CN1CCC(OC(c2cccc(C#CCCCCN)c2)c2nc3ccccc3s2)CC1` (stereo not shown) [Example 319, 6-{3-[benzothiazol-2-yl(1-methylpiperidin-4-yloxy)methyl]phenyl}hex-5-ynylamine], the Ki or IC50 activity class was below 30 nM.

In turn, `CN1CCC(OC(c2cccc(CCCCNC(=N)NC(=O)OC(C)(C)C)c2)c2nc3ccccc3[nH]2)CC1` (stereo not shown) [Example 309, N-tert-butoxycarbonyl-N′-(4-{3-[(1H-benzimidazol-2-yl)(1-methylpiperidin-4-yloxy)methyl]phenyl}butyl)guanidine] had a Ki or IC50 activity class below 300 nM.

With `CN1CCC(OC(c2cccc(C#CCCNC(=N)N)c2)c2nc3ccccc3s2)CC1` (stereo not shown) [Example 372, N-(4-{3-[benzothiazol-2-yl(1-methylpiperidin-4-yloxy)methyl]phenyl}but-3-ynyl)guanidine], the Ki or IC50 activity class was below 30 nM.

Take `CN1CCC(OC(c2cccc(OCCCCCN)c2)c2nc3ccccc3s2)CC1` (stereo not shown) [Example 371, 5-{3-[benzothiazol-2-yl(1-methylpiperidin-4-yloxy)methyl]phenoxy}pentylamine]: the Ki or IC50 activity class is below 30 nM.

`CN1CCC(OC(c2cccc(SCCO)c2)c2nc3ccccc3s2)CC1` (stereo not shown) [Example 158, 2-{3-[benzothiazol-2-yl(1-methylpiperidin-4-yloxy)methyl]phenylsulfanyl}ethanol] registered a Ki or IC50 activity class below 30 nM.

Take `CN1CCC(OC(c2cccc(OCc3cccnc3)c2)c2nc3ccccc3s2)CC1` (stereo not shown) [Example 284, 2-{(1-methylpiperidin-4-yloxy)[3-(pyridin-3-ylmethoxy)phenyl]methyl}benzothiazole]: the Ki or IC50 activity class is below 300 nM.

The compound `Cc1ccc(C(OC2CCN(C)CC2)c2nc3ccccc3s2)cc1` (stereo not shown) [Example 7, 2-[(1-methylpiperidin-4-yloxy)-p-tolylmethyl]benzothiazole] yielded a Ki or IC50 activity class below 300 nM.

Consider `CN1CCC(OC(c2cccc(C#CCCCN)c2)c2nc3ccccc3s2)CC1` (stereo not shown) [Example 287, 5-{3-[benzothiazol-2-yl(1-methylpiperidin-4-yloxy)methyl]phenyl}pent-4-ynylamine], for which the Ki or IC50 activity class is below 30 nM.

`CN1CCC(OC(c2cccc(-c3ccccc3F)c2)c2nc3ccccc3s2)CC1` (stereo not shown) [Example 137, 2-[(2′-fluorobiphenyl-3-yl)(1-methylpiperidin-4-yloxy)methyl]benzothiazole] yielded a Ki or IC50 activity class below 300 nM.

Compound `CN1CCC(OC(c2cccc(C#CCCCCN)c2)c2nc3ccccc3[nH]2)CC1` (stereo not shown) [Example 337, 6-{3-[(1H-benzimidazol-2-yl)(1-methylpiperidin-4-yloxy)methyl]phenyl}hex-5-ynylamine] registered a Ki or IC50 activity class below 30 nM.

On to `CN1CCC(OC(c2cccc(OCC3CCNCC3)c2)c2nc3ccccc3s2)CC1` (stereo not shown) [Example 377, 2-{(1-methylpiperidin-4-yloxy)[3-(piperidin-4-ylmethoxy)phenyl]methyl}benzothiazole], for which the Ki or IC50 activity class is below 300 nM.

Regarding `CN1CCC(OC(c2cccc(-c3ccccc3)c2)c2nc3ccccc3s2)CC1` (stereo not shown) [Example 53, 2-[biphenyl-3-yl(1-methylpiperidin-4-yloxy)methyl]benzothiazole], the Ki or IC50 activity class was below 300 nM.

The compound `COc1cc(F)cc(C(NC2CCN(C)CC2)c2nc3ccccc3s2)c1` (stereo not shown) [Example 43, [benzothiazol-2-yl(3-fluoro-5-methoxyphenyl)methyl](1-methylpiperidin-4-yl)amine] displayed a Ki or IC50 activity class below 300 nM.

The compound `Cc1cc(F)cc(C(OC2CCN(C)CC2)c2nc3ccccc3s2)c1` (stereo not shown) [Example 38, 2-[(3-fluoro-5-methylphenyl)(1-methylpiperidin-4-yloxy)methyl]benzothiazole] yielded a Ki or IC50 activity class below 300 nM.

As for `CN1CCC(OC(c2cccc(N3CCOCC3)c2)c2nc3ccccc3s2)CC1` (stereo not shown) [Example 243, 2-[(1-methylpiperidin-4-yloxy)(3-morpholin-4-yl-phenyl)methyl]benzothiazole], the Ki or IC50 activity class was below 300 nM.

With `CN1CCC(OC(c2ccc3c(c2)OCCO3)c2nc3ccccc3s2)CC1` (stereo not shown) [Example 10, 2-[(2,3-dihydrobenzo[1,4]dioxin-6-yl)(1-methylpiperidin-4-yloxy)methyl]benzothiazole], the Ki or IC50 activity class is below 30 nM.

Consider `CN1CCC(OC(c2cccc(SCCCCN)c2)c2nc3cc(F)c(F)cc3[nH]2)CC1` (stereo not shown) [Example 495], for which the Ki or IC50 activity class was below 30 nM.
